Source: patent US20130109682A1, “CYCLIC ETHER COMPOUNDS USEFUL AS KINASE INHIBITORS” (NOVARTIS AG, priority 2010, published 2013)
pEC50, pIC50: −log10 of the molar value.

Assays:
GSK3β = GSK3β (Homo sapiens, UniProt P49841); assay: GSK3β ATP depletion assay; type: biochemical; conditions: read-out: GSK3b IC50
Procedure, shortened: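 Human GSK3β (5 nM) preincubated 15 min with 10 μM biotinylated phospho-CREB peptide in pH 7.5 Tris buffer (15 mM MgCl2, 1 mM DTT, 0.1% BSA, 2.5% DMSO). Reaction started with 2 μM ATP and run to about 50% ATP depletion. Remaining ATP measured by KinaseGlo luminescence.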

PIM1 = PIM1 (Homo sapiens, UniProt P11309); assay: KinaseGlo Pim1 ATP depletion assay; type: biochemical
Procedure, shortened: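 2.5 nM PIM1 preincubated 15 min with compound and 40 μM BAD peptide in 50 mM HEPES pH 7.5, 5 mM MgCl2, 1 mM DTT, 0.05% BSA, 2.5% DMSO. The reaction was started with 20 μM ATP (final) and run to about 50% ATP depletion. Remaining ATP read by KinaseGlo Plus luminescence to give IC50.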

PIM3 = PIM3 (Homo sapiens, UniProt Q86V86); assay: KinaseGlo Pim3 ATP depletion assay; type: biochemical
Procedure, shortened: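 Kinase was preincubated 15 min with BAD peptide in HEPES pH 7.5/MgCl2/DTT/BSA before ATP was added. Final concentrations were 40 μM ATP, 100 μM BAD peptide and 2.5% DMSO, with 5 nM enzyme. The reaction ran to ~50% ATP depletion and remaining ATP was read by KinaseGlo Plus luminescence.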

PIM2 = PIM2 (Homo sapiens, UniProt Q9P1W9); assay: KinaseGlo Pim2 ATP depletion assay; type: biochemical
Procedure, shortened: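 Luminescent ATP-depletion read-out of PIM2 phosphorylating BAD peptide (RSRHSSYPAGT-OH). Final conditions: 5 nM PIM2, 4 μM ATP, 10 μM peptide, 2.5% DMSO in 50 mM HEPES pH 7.5, 5 mM MgCl2, 1 mM DTT, 0.05% BSA. Enzyme–peptide preincubated 15 min with compound; reaction run to ~50% ATP depletion.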

[1] = tested on: KMS11 (human myeloma cell line); assay: Cell proliferation assay (CellTiter-Glo), KMS11; type: cell-based; conditions: Homo sapiens, KMS-11; KMS11-Luc cells
Procedure, shortened: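 KMS11 cells in IMDM with 10% FBS and sodium pyruvate, seeded at 2000 cells/well on assay day. Compound added at 2× to equal volume of cells, incubated 3 days at 37° C. Viability read by CellTiter-Glo luminescence; EC50 derived.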

Sequence of PIM2 (Q9P1W9 whole entry): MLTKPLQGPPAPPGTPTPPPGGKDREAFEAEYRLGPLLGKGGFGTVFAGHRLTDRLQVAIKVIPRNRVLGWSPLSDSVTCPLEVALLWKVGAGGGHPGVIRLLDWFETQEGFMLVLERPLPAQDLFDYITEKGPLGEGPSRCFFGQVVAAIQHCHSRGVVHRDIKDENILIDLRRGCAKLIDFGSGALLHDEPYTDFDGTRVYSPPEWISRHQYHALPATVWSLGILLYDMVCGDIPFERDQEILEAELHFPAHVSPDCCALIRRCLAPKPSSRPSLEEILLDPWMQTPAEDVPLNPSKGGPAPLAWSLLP
Sequence of GSK3β (P49841 whole entry, species assumed): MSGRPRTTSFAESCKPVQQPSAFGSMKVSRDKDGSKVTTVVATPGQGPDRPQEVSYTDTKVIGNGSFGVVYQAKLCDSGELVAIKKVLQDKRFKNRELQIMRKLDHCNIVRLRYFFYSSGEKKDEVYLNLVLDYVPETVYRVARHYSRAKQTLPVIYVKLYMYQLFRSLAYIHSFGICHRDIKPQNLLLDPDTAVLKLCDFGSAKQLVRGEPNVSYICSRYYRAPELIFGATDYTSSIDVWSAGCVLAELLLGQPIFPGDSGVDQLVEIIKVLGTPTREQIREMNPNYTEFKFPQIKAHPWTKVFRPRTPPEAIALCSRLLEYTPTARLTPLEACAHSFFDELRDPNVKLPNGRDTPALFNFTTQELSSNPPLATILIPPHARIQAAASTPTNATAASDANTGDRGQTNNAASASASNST
Sequence of PIM1 (P11309 whole entry): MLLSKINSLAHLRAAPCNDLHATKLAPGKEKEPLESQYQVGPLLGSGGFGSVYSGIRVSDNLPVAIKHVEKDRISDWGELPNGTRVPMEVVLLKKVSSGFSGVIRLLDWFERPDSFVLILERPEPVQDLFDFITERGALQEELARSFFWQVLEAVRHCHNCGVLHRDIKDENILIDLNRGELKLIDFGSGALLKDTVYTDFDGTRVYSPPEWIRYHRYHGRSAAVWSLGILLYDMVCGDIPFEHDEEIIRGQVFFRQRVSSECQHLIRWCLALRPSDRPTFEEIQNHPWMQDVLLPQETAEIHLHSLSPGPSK

O=C(Nc1cnccc1[C@H]1C[C@@H](O)[C@@]2(O)CCCC[C@H]2O1)c1ccnn(-c2ccccc2F)c1=O [Example 190, N-(4-((2R,4R,4aS,8aR)-4,4a-dihydroxyoctahydro-2H-chromen-2-yl)pyridin-3-yl)-2-(2-fluorophenyl)-3-oxo-2,3-dihydropyridazine-4-carboxamide]
pIC50 (GSK3β): 7.41
pIC50 (PIM1): 7.47
pIC50 (PIM3): 7.45
pIC50 (PIM2): 6.31
pEC50 [1]: < 5.00

O=C(Nc1cnccc1[C@@H]1C[C@H](O)[C@]2(O)CCCC[C@@H]2O1)c1ccnn(-c2ccccc2F)c1=O [Example 191, N-(4-((2S,4S,4aR,8aS)-4,4a-dihydroxyoctahydro-2H-chromen-2-yl)pyridin-3-yl)-2-(2-fluorophenyl)-3-oxo-2,3-dihydropyridazine-4-carboxamide]
pIC50 (GSK3β): 5.97
pIC50 (PIM1): 5.75
pIC50 (PIM3): 5.62
pIC50 (PIM2): < 4.60
pEC50 [1]: < 5.00

O=C(Nc1cnccc1[C@@H]1C[C@H](O)[C@]2(O)CCC[C@@H]2O1)c1cccn(-c2ccccc2)c1=O [Example 192, N-(4-((2S,4S,4aR,7aS)-4,4a-dihydroxyoctahydrocyclopenta[b]pyran-2-yl)pyridin-3-yl)-2-oxo-1-phenyl-1,2-dihydropyridine-3-carboxamide]
pIC50 (GSK3β): < 4.60
pIC50 (PIM1): < 4.60
pIC50 (PIM3): < 4.60
pIC50 (PIM2): < 4.60
pEC50 [1]: < 5.00

CC[C@H]1O[C@@H](c2ccncc2NC(=O)c2cccn(-c3ccccc3)c2=O)C[C@@H](O)[C@@H]1O [Example 193, N-(4-((2R,4R,5S,6R)-6-ethyl-4,5-dihydroxytetrahydro-2H-pyran-2-yl)pyridin-3-yl)-2-oxo-1-phenyl-1,2-dihydropyridine-3-carboxamide]
pIC50 (GSK3β): < 4.60
pIC50 (PIM1): 5.23
pIC50 (PIM3): 5.12
pIC50 (PIM2): < 4.60
pEC50 [1]: < 5.00

O=C(Nc1cnccc1[C@H]1C[C@@H](O)[C@@]2(O)CCC[C@H]2O1)c1cccn(-c2ccccc2)c1=O [Example 194, N-(4-((2R,4R,4aS,7aR)-4,4a-dihydroxyoctahydrocyclopenta[b]pyran-2-yl)pyridin-3-yl)-2-oxo-1-phenyl-1,2-dihydropyridine-3-carboxamide]
pIC50 (GSK3β): 4.88
pIC50 (PIM1): 5.66
pIC50 (PIM3): 5.55
pIC50 (PIM2): < 4.60
pEC50 [1]: < 5.00

O=C1CC[C@H]2O[C@@H](c3ccncc3NC(=O)c3ccc(F)c(-c4c(F)cccc4F)n3)C[C@@H](O)[C@H]2N1 [Example 198, 6-(2,6-difluorophenyl)-5-fluoro-N-(4-((2R,4R,4aR,8aR)-4-hydroxy-6-oxooctahydro-2H-pyrano[3,2-b]pyridin-2-yl)pyridin-3-yl)picolinamide]
pIC50 (GSK3β): 7.62
pIC50 (PIM1): 8.59
pIC50 (PIM3): 7.72
pIC50 (PIM2): 7.27
pEC50 [1]: < 5.00

CC[C@H]1O[C@@H](c2ccncc2NC(=O)c2ccc(F)c(-c3c(F)cccc3F)n2)C[C@@H](O)[C@H]1C#N [Example 200, N-(4-((2R,4R,5R,6R)-5-cyano-6-ethyl-4-hydroxytetrahydro-2H-pyran-2-yl)pyridin-3-yl)-6-(2,6-difluorophenyl)-5-fluoropicolinamide]
pIC50 (GSK3β): 5.92
pIC50 (PIM1): 8.11
pIC50 (PIM3): 7.47
pIC50 (PIM2): 7.33
pEC50 [1]: < 5.00

O=C(Nc1cnccc1[C@H]1C[C@@H](O)[C@@]2(O)CCC[C@H]2O1)c1ccnn(-c2ccccc2F)c1=O [Example 201, N-(4-((2R,4R,4aS,7aR)-4,4a-dihydroxyoctahydrocyclopenta[b]pyran-2-yl)pyridin-3-yl)-2-(2-fluorophenyl)-3-oxo-2,3-dihydropyridazine-4-carboxamide]
pIC50 (GSK3β): 6.42
pIC50 (PIM1): 6.83
pIC50 (PIM3): 6.88
pIC50 (PIM2): 5.49
pEC50 [1]: < 5.00

CC[C@H]1O[C@@H](c2ccncc2NC(=O)c2c[nH]cc(-c3ccccc3F)c2=O)C[C@@H](O)[C@@H]1O [Example 202, N-(4-((2R,4R,5S,6R)-6-ethyl-4,5-dihydroxytetrahydro-2H-pyran-2-yl)pyridin-3-yl)-5-(2-fluorophenyl)-4-oxo-1,4-dihydropyridine-3-carboxamide]
pIC50 (GSK3β): 5.36
pIC50 (PIM1): 6.12
pIC50 (PIM3): 5.96
pIC50 (PIM2): 5.16
pEC50 [1]: < 5.00

O=C(Nc1cnccc1[C@@H]1C[C@H](O)[C@]2(O)CCC[C@@H]2O1)c1ccnn(-c2ccccc2F)c1=O [Example 203, N-(4-((2S,4S,4aR,7aS)-4,4a-dihydroxyoctahydrocyclopenta[b]pyran-2-yl)pyridin-3-yl)-2-(2-fluorophenyl)-3-oxo-2,3-dihydropyridazine-4-carboxamide]
pIC50 (GSK3β): 6.27
pIC50 (PIM1): 5.18
pIC50 (PIM3): 4.62
pIC50 (PIM2): < 3.60
pEC50 [1]: < 5.00

O=C(Nc1cnccc1[C@H]1C[C@@H](O)[C@@]2(O)CCC[C@H]2O1)c1ccc(F)c(-c2c(F)cccc2F)n1 [Example 204, 6-(2,6-difluorophenyl)-N-(4-((2R,4R,4aS,7aR)-4,4a-dihydroxyoctahydrocyclopenta[b]pyran-2-yl)pyridin-3-yl)-5-fluoropicolinamide]
pIC50 (GSK3β): 7.34
pIC50 (PIM1): 9.30
pIC50 (PIM3): 8.70
pIC50 (PIM2): 8.55
pEC50 [1]: 5.27

Nc1cnc(-c2c(F)cccc2F)nc1C(=O)Nc1cnccc1[C@@H]1C[C@H](O)[C@@H](O)[C@H](C2CC2)O1 [Example 205, 5-amino-N-(4-((2S,4S,5R,6S)-6-cyclopropyl-4,5-dihydroxytetrahydro-2H-pyran-2-yl)pyridin-3-yl)-2-(2,6-difluorophenyl)pyrimidine-4-carboxamide]
pIC50 (GSK3β): 5.73
pIC50 (PIM1): 7.43
pIC50 (PIM3): 7.16
pIC50 (PIM2): 7.34
pEC50 [1]: < 5.00

O=C(Nc1cnccc1[C@@H]1C[C@H](O)[C@@H](O)[C@H](C2CC2)O1)c1cccc(-c2c(F)cccc2F)n1 [Example 206, N-(4-((2S,4S,5R,6S)-6-cyclopropyl-4,5-dihydroxytetrahydro-2H-pyran-2-yl)pyridin-3-yl)-6-(2,6-difluorophenyl)picolinamide]
pIC50 (GSK3β): 5.72
pIC50 (PIM1): 7.70
pIC50 (PIM3): 7.69
pIC50 (PIM2): 7.47
pEC50 [1]: < 5.00

Nc1cnc(-c2c(F)cccc2F)nc1C(=O)Nc1cnccc1[C@H]1C[C@@H](O)[C@H](O)[C@@H](C2CC2)O1 [Example 207, 5-amino-N-(4-((2R,4R,5S,6R)-6-cyclopropyl-4,5-dihydroxytetrahydro-2H-pyran-2-yl)pyridin-3-yl)-2-(2,6-difluorophenyl)pyrimidine-4-carboxamide]
pIC50 (GSK3β): 6.24
pIC50 (PIM1): 8.20
pIC50 (PIM3): 8.07
pIC50 (PIM2): 8.22
pEC50 [1]: 5.19

O=C(Nc1cnccc1[C@H]1C[C@@H](O)[C@H](O)[C@@H](C2CC2)O1)c1cccc(-c2c(F)cccc2F)n1 [Example 208, N-(4-((2R,4R,5S,6R)-6-cyclopropyl-4,5-dihydroxytetrahydro-2H-pyran-2-yl)pyridin-3-yl)-6-(2,6-difluorophenyl)picolinamide]
pIC50 (GSK3β): 6.10
pIC50 (PIM1): 8.34
pIC50 (PIM3): 8.18
pIC50 (PIM2): 8.06
pEC50 [1]: < 5.00

O=C(Nc1cnccc1[C@@H]1C[C@H](O)[C@@H](O)[C@H](C2CC2)O1)c1ccc(F)c(-c2c(F)cccc2F)n1 [Example 209, N-(4-((2S,4S,5R,6S)-6-cyclopropyl-4,5-dihydroxytetrahydro-2H-pyran-2-yl)pyridin-3-yl)-6-(2,6-difluorophenyl)-5-fluoropicolinamide]
pIC50 (GSK3β): 5.97
pIC50 (PIM1): 8.49
pIC50 (PIM3): 8.38
pIC50 (PIM2): 8.10
pEC50 [1]: 5.02
